Where two headings read alike, the source gives them in different places.
Tested on: Human cord blood CD34+ cells
Assay: cells
Assay type: cell-based
Conditions: for proliferation inhibition: CD34 cells, cell number, FIG. 3, concentration range for which the percentage of dead cells is stated; for IC50: Homo sapiens, cytokine stimulated CD34 cells; for percentage of dead cells to total cells: human
Protocol: Human cord blood CD34+ cells were isolated to high purity (>90%) by immunomagnetic cell sorting, aliquoted and frozen in DMSO containing medium. For cell culture setup, frozen CD34+ cells were thawed and 200 cells were seeded in 200 μl complete medium of a well of a 96 well plate. The basal cell culture medium consisted of IMDM-Medium supplemented with 20% human AB serum and antibiotics (pen/strep). The CD34+ cells were activated by addition of following cytokine cocktail: hu-SCF (100 ng/ml), hu-IL6 (10 ng/ml), hu-GM-CSF (100 U/ml), hu-TPO (25 ng/ml) and hu-EPO (5 U/ml). Cultivation was performed in incubators at 37° C., high humidity and 7% CO2.
Two different experimental setup were used: 1) addition of the inhibitor compound prior supplementation of the medium with cytokines to hit preferentially resting cells, and 2) addition of inhibitor compound 4 days after CD34 activation with cytokines to hit preferentially activated cells.
Dependent on the proliferation rate of the CD34+ cells, harvest and analysis of cell number and cytotoxicity was performed after 9–10 d cell culture. The cell number and cytotoxicity was analysed by FACS technique. The number of cells present in the well was counted by comparison with an internal bead standard. A aliquot of 10000 beads was added to each well harboring 200 μl medium volume FLUOSPHERES® polystyrene, 15 μm; Molecular Probes).
A gate, shown as rectangular region, was set onto the standard beads, a distinct number was counted, analysis was stopped and the corresponding volume of medium containing cells was calculated. […] The viable cells appear again in the middle/right position of the forward scatter (FSC) displaying low/no propidium iodide labeling. The few dead cells appear left or in the upper/left position relative to viable cell population. The FACS measurement took an aliqout count of the beads and calculated the number of cells being present within the well, whereas the cytotoxicity, the number of dead cells, was recorded in parallel during this measurement (addition of propidium iodide; final concentration 1 μg/ml). […] At the highest inhibitory and cytotoxic concentration very few cells were present anymore in the viable cell cluster and the majority of cells had been killed as evident by increased PI staining or fragmentation (panel H).
A typical example of the calculation of the number of CD34 cells and percentage of dead cells in a well is shown in FIG. 3 for two cytotoxic compounds, namely 5-fluorouracil and doxorubicine. […] The increase of the percentage of dead cells obtained from the analysis of the PI positive cell fraction (FIG. 2 panels E to H) is shown as solid line.

How did the proliferation inhibition turn out when `O=c1[nH]cc(F)c(=O)[nH]1` [5-fluorouracil] was run?
The proliferation inhibition was “more than 50%”.

And the IC50 (240 h, 9–10 d culture, FACS count against bead standard, tested 0.1–100 μmol/l, read-out: IC50 value for the cell number analysis)?
Its IC50 is 0.34 µM.

What about the “percentage of dead cells to total cells” value of the same compound?
The value was 0-25%.

With `COc1cccc2c1C(=O)c1c(O)c3c(c(O)c1C2=O)C[C@@](O)(C(=O)CO)C[C@@H]3O[C@H]1C[C@H](N)[C@H](O)[C@H](C)O1` [doxorubicine] as the compound, how does the proliferation inhibition read?
Its proliferation inhibition is “about 80%”.

And the IC50 (240 h, 9–10 d culture, FACS count against bead standard, tested 1–1000 ng/ml, read-out: IC50 value (cell number) from IC50 calculation program)?
Its IC50 is 0.67 ng/mL.

And the IC50 (FIG. 3 legend, tested 1–1000 ng/ml, read-out: IC50 value for the cell number analysis)?
Its IC50 is 0.67 ng/mL.

And the “percentage of dead cells to total cells” value?
Its value is ~40%.
